The source of these data is ChEMBL document CHEMBL1201862, “PubChem BioAssay data set” (2004).

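Growth conditions: 96-well plates. Treatment: test compound, 48 hours, 5 concentrations. Analysis: linear interpolation between bracketing concentrations; unreached endpoints set to highest concentration. At the GI50, growth is halved.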 Active and inactive are the calls of the source. No stated cut-off is given here; in the data, active = GI50 up to about 1.1 µM and inactive = higher.

Among the test systems are OVCAR-4; HOP-92; SNB-19; SK-MEL-5; SF-268; HCT-15; UACC-62; MOLT-4; CCRF-CEM; OVCAR-8; OVCAR-5; SK-OV-3; A498; SF-539; NCI-H522; RXF 393.
Common to all, as to assay: growth of human tumour cells (NCI), 48 h

With `O=c1cc(/C=C/c2ccccc2)c2ccc(O/C(=C\c3ccccc3)c3nc4ccccc4c(=O)o3)cc2o1`, the GI50 is 27.2 µM (inactive) in the experiment on OVCAR-4; 15.7 µM (inactive) with HOP-92; 26 µM (inactive) in the experiment on SNB-19; 16.3 µM (inactive) with SK-MEL-5; 11.8 µM (inactive) in the experiment with SF-268; 30.3 µM in the experiment on HCT-15. The GI50 is 24.7 µM (inactive) with UACC-62; 17.6 µM (inactive) in the experiment on MOLT-4; 16.9 µM (inactive) in the experiment on CCRF-CEM; 28.2 µM (inactive) in the experiment with OVCAR-8; 44.9 µM (inactive) in the experiment with OVCAR-5; 39.4 µM (inactive) in the experiment on SK-OV-3. The GI50 in the experiment on A498 is 34.1 µM (inactive); in the experiment with SF-539 it was 23.3 µM (inactive).

Regarding `COP(=O)(OC)C(=O)N1N(c2ccc([N+](=O)[O-])cc2)C(=O)C(C)NC1(NNc1ccc([N+](=O)[O-])cc1)P(=O)(OC)OC` (centres undefined), the GI50 with OVCAR-4 was > 100 µM (inactive); with HOP-92, > 100 µM (inactive); in the experiment with SNB-19, > 100 µM (inactive); with SK-MEL-5 it was > 100 µM (inactive); with SF-268, > 100 µM (inactive); with HCT-15, greater than 100 µM. Besides, the GI50 with UACC-62, with MOLT-4, with CCRF-CEM, with OVCAR-8, in the experiment with OVCAR-5 and with NCI-H522 was > 100 µM (inactive) each time. The GI50 in the experiment with A498 and in the experiment on SF-539 was > 100 µM (inactive) each time.

On to `COC(=O)C1CCC(N2C(=O)CCC2C(=O)OC)=N1` (centres undefined), for which the GI50 is > 100 µM (inactive) with OVCAR-4; > 100 µM (inactive) in the experiment on HOP-92; > 100 µM (inactive) in the experiment with SNB-19; > 100 µM (inactive) with SF-268; greater than 100 µM with HCT-15; > 100 µM (inactive) in the experiment on UACC-62. In addition, the GI50 in the experiment on MOLT-4, in the experiment with CCRF-CEM, with OVCAR-8, in the experiment on OVCAR-5, in the experiment on SK-OV-3 and in the experiment with NCI-H522 was > 100 µM (inactive) each time. Also, the GI50 in the experiment with A498 is > 100 µM (inactive).

With `CCOC(=O)NC(=O)c1cn(CCCCCOC(=O)NCCCCCCNC(=O)OCCCCCn2cc(C(=O)NC(=O)OCC)c(=O)[nH]c2=O)c(=O)[nH]c1=O`, the GI50 with OVCAR-4 is > 100 µM (inactive); in the experiment on SNB-19, > 100 µM (inactive); in the experiment on SK-MEL-5, > 100 µM (inactive); in the experiment with SF-268, > 100 µM (inactive); in the experiment with HCT-15, greater than 100 µM; in the experiment with UACC-62 it was > 100 µM (inactive). For the same compound, the GI50 in the experiment with MOLT-4, in the experiment on CCRF-CEM, in the experiment with OVCAR-8, in the experiment with SK-OV-3, in the experiment on NCI-H522 and in the experiment on RXF 393 was > 100 µM (inactive) in each case. In addition, the GI50 in the experiment on A498 and with SF-539 was > 100 µM (inactive) in each case.

On to `CC(=O)c1ccc(NC(=O)C(=O)CC(=O)c2sc(-n3nc(-c4ccccc4)cc3-c3ccccc3)nc2C)cc1`, for which the GI50 with OVCAR-4 was > 100 µM (inactive); in the experiment with SNB-19 it was > 100 µM (inactive); in the experiment with SF-268 it was > 100 µM (inactive); in the experiment on HCT-15 it was greater than 100 µM; in the experiment on UACC-62, > 100 µM (inactive); in the experiment on MOLT-4, > 100 µM (inactive). Also, the GI50 with CCRF-CEM, in the experiment on OVCAR-8, in the experiment on OVCAR-5, with SK-OV-3, in the experiment with NCI-H522 and with RXF 393 was > 100 µM (inactive) in each case. Also, the GI50 in the experiment on A498 and in the experiment on SF-539 was > 100 µM (inactive) each time.

Turning to `CC1=C(/C=C/C(C)=C/C=C/C(C)=C/C=C/C=C(C)/C=C/C=C(C)/C=C/C=C(C)/C=C/C=C(\C)C(=O)O)C(C)(C)CCC1`, the GI50 is > 100 µM (inactive) in the experiment with OVCAR-4; > 100 µM (inactive) in the experiment on SNB-19; > 100 µM (inactive) with SK-MEL-5; > 100 µM (inactive) with SF-268; greater than 100 µM in the experiment on HCT-15; > 100 µM (inactive) in the experiment on UACC-62. The GI50 in the experiment on MOLT-4, with CCRF-CEM, in the experiment on OVCAR-8, with OVCAR-5, with SK-OV-3 and with NCI-H522 was > 100 µM (inactive) each time. In addition, the GI50 with RXF 393, in the experiment with A498 and in the experiment on SF-539 was > 100 µM (inactive) throughout.

Take `CC1(C)C2=CCCC(=O)[C@@]2(C)CC[C@@H]1O`: the GI50 with OVCAR-4, with HOP-92, in the experiment with SNB-19, in the experiment with SK-MEL-5, with SF-268 and with UACC-62 was > 100 µM (inactive) each time. Moreover, the GI50 in the experiment with MOLT-4, with CCRF-CEM, in the experiment with OVCAR-8, in the experiment on OVCAR-5, in the experiment with SK-OV-3 and in the experiment on NCI-H522 was > 100 µM (inactive) throughout. Moreover, the GI50 in the experiment on RXF 393 and with SF-539 was > 100 µM (inactive) each time.

Take `CC(=O)OCC1OC(n2c(-c3ccc(C)cc3)cc(-c3ccccc3)c(C#N)c2=O)C(OC(C)=O)C(OC(C)=O)C1OC(C)=O` (centres undefined): the GI50 with OVCAR-4 was > 100 µM (inactive); in the experiment with HOP-92, > 100 µM (inactive); in the experiment on SNB-19, > 100 µM (inactive); in the experiment with SK-MEL-5, > 100 µM (inactive); with SF-268 it was > 100 µM (inactive); with HCT-15 it was greater than 100 µM. The GI50 in the experiment with UACC-62, in the experiment on MOLT-4, with CCRF-CEM, with OVCAR-8, in the experiment on OVCAR-5 and with SK-OV-3 was > 100 µM (inactive) each time. Moreover, the GI50 in the experiment with NCI-H522 was 82.6 µM (inactive); in the experiment with SF-539, > 100 µM (inactive).

For the compound `O=C1c2ccccc2C(=O)C2C1C1C(=O)c3ccccc3C(=O)C21` (centres undefined), the GI50 with OVCAR-4 was > 100 µM (inactive); in the experiment with HOP-92, > 100 µM (inactive); in the experiment with SNB-19, > 100 µM (inactive); in the experiment on SK-MEL-5 it was 32.6 µM (inactive); in the experiment with SF-268, 78.2 µM (inactive); with HCT-15, 8.69 µM. Further, the GI50 in the experiment with UACC-62 is > 100 µM (inactive); in the experiment on CCRF-CEM, > 100 µM (inactive); in the experiment on OVCAR-8 it was > 100 µM (inactive); in the experiment with OVCAR-5 it was 42.3 µM (inactive); in the experiment with SK-OV-3, > 100 µM (inactive); with NCI-H522, 26.2 µM (inactive). For the same compound, the GI50 in the experiment on RXF 393 and with SF-539 was > 100 µM (inactive) each time.

For `Cc1cc2c(c(C(N)=O)c1C)-c1cccc(F)c1C2=O`, the GI50 was > 100 µM (inactive) with OVCAR-4; > 100 µM (inactive) with HOP-92; > 100 µM (inactive) in the experiment with SNB-19; > 100 µM (inactive) with SK-MEL-5; > 100 µM (inactive) in the experiment on SF-268; greater than 100 µM in the experiment with HCT-15. In addition, the GI50 in the experiment on UACC-62 is 79.6 µM (inactive); in the experiment with MOLT-4, > 100 µM (inactive); in the experiment on CCRF-CEM, > 100 µM (inactive); in the experiment with OVCAR-8, > 100 µM (inactive); in the experiment on OVCAR-5 it was > 100 µM (inactive); with SK-OV-3 it was > 100 µM (inactive). Besides, the values for the GI50 with NCI-H522, in the experiment on A498 and in the experiment with SF-539 were 41.2 µM (inactive), 45.5 µM (inactive) and > 100 µM (inactive), respectively.

Consider `O=C(N/C(=C\c1ccccc1Cl)c1nc2ccccc2[nH]1)c1ccccc1`, for which the GI50 in the experiment with OVCAR-4 was 29 µM (inactive); in the experiment on HOP-92, 10.3 µM (inactive); in the experiment with SNB-19, 29.3 µM (inactive); with SK-MEL-5 it was 17.4 µM (inactive); in the experiment with SF-268, 32.7 µM (inactive); with HCT-15, 25.8 µM. Further, the GI50 was 21.4 µM (inactive) in the experiment on UACC-62; 20.6 µM (inactive) in the experiment on MOLT-4; 30.4 µM (inactive) with CCRF-CEM; 27.5 µM (inactive) in the experiment with OVCAR-8; 30.8 µM (inactive) in the experiment on OVCAR-5; 31.6 µM (inactive) with SK-OV-3. In addition, the GI50 was 22.8 µM (inactive) with NCI-H522, 27.4 µM (inactive) in the experiment with RXF 393 and 32.7 µM (inactive) in the experiment on SF-539.

As for `Cc1ccc(-c2cc(=O)c3cc(C)c(C)c(C(=O)O)c3o2)cc1C`, the GI50 is > 100 µM (inactive) with OVCAR-4; > 100 µM (inactive) in the experiment with HOP-92; > 100 µM (inactive) in the experiment on SNB-19; > 100 µM (inactive) in the experiment on SK-MEL-5; greater than 100 µM with HCT-15; > 100 µM (inactive) in the experiment on UACC-62. Moreover, the GI50 with MOLT-4, in the experiment with CCRF-CEM, in the experiment on OVCAR-8, with OVCAR-5, in the experiment on SK-OV-3 and in the experiment with NCI-H522 was > 100 µM (inactive) throughout. Also, the GI50 with RXF 393 and with SF-539 was > 100 µM (inactive) throughout.

In the case of `COC(=O)CCC(=O)Nc1cc(Cl)ccc1Cl`, the GI50 is > 100 µM (inactive) in the experiment on OVCAR-4; > 100 µM (inactive) with HOP-92; > 100 µM (inactive) in the experiment with SNB-19; > 100 µM (inactive) in the experiment on SK-MEL-5; > 100 µM (inactive) in the experiment with SF-268; greater than 100 µM in the experiment on HCT-15. Also, the GI50 with UACC-62, with MOLT-4, in the experiment on CCRF-CEM, with OVCAR-8, in the experiment on OVCAR-5 and in the experiment with SK-OV-3 was > 100 µM (inactive) each time. For the same compound, the GI50 with NCI-H522 is > 100 µM (inactive); in the experiment on RXF 393 it was 30.2 µM (inactive); with SF-539, > 100 µM (inactive).

Turning to `O=c1[nH]c2c(O)cccc2c2cc3c(c(O)c12)OCO3` [NARCIPRIMINE], the GI50 in the experiment on OVCAR-4 is 11.9 µM (inactive); in the experiment with HOP-92 it was 13.4 µM (inactive); in the experiment with SNB-19, 13.6 µM (inactive); in the experiment on SK-MEL-5 it was 17.1 µM (inactive); in the experiment on SF-268 it was 23.2 µM (inactive); in the experiment on HCT-15, 22.5 µM. The GI50 in the experiment on UACC-62 is 18.3 µM (inactive); in the experiment with MOLT-4, 16.8 µM (inactive); in the experiment on CCRF-CEM, 10 µM (inactive); with OVCAR-8, 23.6 µM (inactive); in the experiment with SK-OV-3, 23.6 µM (inactive); in the experiment with NCI-H522, 19.3 µM (inactive). Also, the results for the GI50 with A498 and in the experiment with SF-539 were 21.2 µM (inactive) and 18 µM (inactive), respectively.
